Patent US6914045B2, “Glycopeptide antibiotics” (Wyeth Holdings Corporation, priority 2001, dated 2005)
Values after ≈ are worked out from the molar mass of the structure shown.

Tests used:
Experiment in all cases: in vitro antibacterial evaluation, MIC by broth dilution
Assay type in all cases: cell-based
Staphylococcus sp. = conditions: broth dilution, 18 hours at 35° C.
Outline: (§1)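 Read-out: the lowest concentration at which the test strain fails to grow. Serial dilutions (64-0.06 μg/mL) in Muller-Hinton II […], 5×10^5 CFU/mL inoculum, NCCLS M7-A2 procedure.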

Streptococcus sp. = conditions: broth dilution, 18 hours at 35° C.
Outline: as §1

Enterococcus sp. = conditions: broth dilution, 18 hours at 35° C.
Outline: as §1

Escherichia coli = conditions: 18 hours at 35° C.

MIC Coagulase Negative Staphylococcus (GC 4547) (Staphylococcus sp.): 4 µg/mL (≈ 2.74 µM)
MIC Coagulase Negative Staphylococcus (GC 4548) (Staphylococcus sp.): 4 µg/mL (≈ 2.74 µM)
MIC Coagulase Negative Staphylococcus (GC 4549) (Staphylococcus sp.): 4 µg/mL (≈ 2.74 µM)
MIC Coagulase Negative Staphylococcus (GC 4551) (Staphylococcus sp.): 8 µg/mL (≈ 5.48 µM)
MIC Coagulase Negative Staphylococcus (GC 6257) (Staphylococcus sp.): 2 µg/mL (≈ 1.37 µM)
MIC Staphylococcus aureus (ATCC 29213) (Staphylococcus sp.): 4 µg/mL (≈ 2.74 µM)
MIC Staphylococcus aureus (GC 1131) (Staphylococcus sp.): 8 µg/mL (≈ 5.48 µM)
MIC Staphylococcus aureus (GC 3051) (Staphylococcus sp.): 4 µg/mL (≈ 2.74 µM)
MIC Staphylococcus aureus (GC 3053) (Staphylococcus sp.): 4 µg/mL (≈ 2.74 µM)
MIC Staphylococcus aureus (GC 4541) (Staphylococcus sp.): 4 µg/mL (≈ 2.74 µM)
MIC Staphylococcus aureus (GC 4542) (Staphylococcus sp.): 4 µg/mL (≈ 2.74 µM)
MIC Staphylococcus aureus (GC 4544) (Staphylococcus sp.): 8 µg/mL (≈ 5.48 µM)
MIC Staphylococcus aureus (GC 4545) (Staphylococcus sp.): 4 µg/mL (≈ 2.74 µM)
MIC Staphylococcus aureus-SMITH (GC 4543) (Staphylococcus sp.): 4 µg/mL (≈ 2.74 µM)
MIC Staphylococcus aureus (ATCC 29213) (Staphylococcus sp.; strain ATCC 29213): 4 µg/mL (≈ 2.74 µM)
MIC Staphylococcus aureus (GC 1131) (Staphylococcus sp.; strain GC 1131): 8 µg/mL (≈ 5.48 µM)
MIC Staphylococcus aureus (GC 3051) (Staphylococcus sp.; strain GC 3051): 4 µg/mL (≈ 2.74 µM)
MIC Staphylococcus aureus (GC 3053) (Staphylococcus sp.; strain GC 3053): 4 µg/mL (≈ 2.74 µM)
MIC Staphylococcus aureus (GC 4541) (Staphylococcus sp.; strain GC 4541): 4 µg/mL (≈ 2.74 µM)
MIC Staphylococcus aureus (GC 4542) (Staphylococcus sp.; strain GC 4542): 4 µg/mL (≈ 2.74 µM)
MIC Staphylococcus aureus-SMITH (GC 4543) (Staphylococcus sp.; strain GC 4543): 4 µg/mL (≈ 2.74 µM)
MIC Staphylococcus aureus (GC 4544) (Staphylococcus sp.; strain GC 4544): 8 µg/mL (≈ 5.48 µM)
MIC Staphylococcus aureus (GC 4545) (Staphylococcus sp.; strain GC 4545): 4 µg/mL (≈ 2.74 µM)
MIC Coagulase Negative Staphylococcus (GC 4547) (Staphylococcus sp.; strain GC 4547): 4 µg/mL (≈ 2.74 µM)
MIC Coagulase Negative Staphylococcus (GC 4548) (Staphylococcus sp.; strain GC 4548): 4 µg/mL (≈ 2.74 µM)
MIC Coagulase Negative Staphylococcus (GC 4549) (Staphylococcus sp.; strain GC 4549): 4 µg/mL (≈ 2.74 µM)
MIC Coagulase Negative Staphylococcus (GC 4551) (Staphylococcus sp.; strain GC 4551): 8 µg/mL (≈ 5.48 µM)
MIC Coagulase Negative Staphylococcus (GC 6257) (Staphylococcus sp.; strain GC 6257): 2 µg/mL (≈ 1.37 µM)
MIC Streptococcus agalactiae (GC 4564) (Streptococcus sp.): 2 µg/mL (≈ 1.37 µM)
MIC Streptococcus pneumoniae (ATCC 6301) (Streptococcus sp.): 2 µg/mL (≈ 1.37 µM)
MIC Streptococcus pneumoniae (GC 1894) (Streptococcus sp.): 0.5 µg/mL (≈ 0.343 µM)
MIC Streptococcus pneumoniae (GC 4565) (Streptococcus sp.): 2 µg/mL (≈ 1.37 µM)
MIC Streptococcus pyogenes (GC 4563) (Streptococcus sp.): 4 µg/mL (≈ 2.74 µM)
MIC Streptococcus pneumoniae (ATCC 6301) (Streptococcus sp.; inoculum 5×10^5 CFU/mL, strain ATCC 6301): 2 µg/mL (≈ 1.37 µM)
MIC Streptococcus pneumoniae (GC 1894) (Streptococcus sp.; inoculum 5×10^5 CFU/mL, strain GC 1894): 0.5 µg/mL (≈ 0.343 µM)
MIC Streptococcus pyogenes (GC 4563) (Streptococcus sp.; inoculum 5×10^5 CFU/mL, strain GC 4563): 4 µg/mL (≈ 2.74 µM)
MIC Streptococcus agalactiae (GC 4564) (Streptococcus sp.; inoculum 5×10^5 CFU/mL, strain GC 4564): 2 µg/mL (≈ 1.37 µM)
MIC Streptococcus pneumoniae (GC 4565) (Streptococcus sp.; inoculum 5×10^5 CFU/mL, strain GC 4565): 2 µg/mL (≈ 1.37 µM)
MIC Enterococcus avium (GC 4558) (Enterococcus sp.): 8 µg/mL (≈ 5.48 µM)
MIC Enterococcus faecalis (ATCC 29212) (Enterococcus sp.): 16 µg/mL (≈ 11 µM)
MIC Enterococcus faecalis (GC 2242) (Enterococcus sp.): 16 µg/mL (≈ 11 µM)
MIC Enterococcus faecalis (GC 2691) (Enterococcus sp.): 32 µg/mL (≈ 21.9 µM)
MIC Enterococcus faecalis (GC 3059) (Enterococcus sp.): 32 µg/mL (≈ 21.9 µM)
MIC Enterococcus faecalis (GC 4552) (Enterococcus sp.): 16 µg/mL (≈ 11 µM)
MIC Enterococcus faecalis (GC 4553) (Enterococcus sp.): 8 µg/mL (≈ 5.48 µM)
MIC Enterococcus faecalis (GC 4554) (Enterococcus sp.): 32 µg/mL (≈ 21.9 µM)
MIC Enterococcus faecalis (GC 6189) (Enterococcus sp.): 16 µg/mL (≈ 11 µM)
MIC Enterococcus faecium (GC 2243) (Enterococcus sp.): 16 µg/mL (≈ 11 µM)
MIC Enterococcus faecium (GC 4556) (Enterococcus sp.): 16 µg/mL (≈ 11 µM)
MIC Enterococcus faecium (GC 4557) (Enterococcus sp.): 4 µg/mL (≈ 2.74 µM)
MIC Enterococcus faecalis (ATCC 29212) (Enterococcus sp.; strain ATCC 29212): 16 µg/mL (≈ 11 µM)
MIC Enterococcus faecium (GC 2243) (Enterococcus sp.; strain GC 2243): 16 µg/mL (≈ 11 µM)
MIC Enterococcus faecalis (GC 4552) (Enterococcus sp.; strain GC 4552): 16 µg/mL (≈ 11 µM)
MIC Enterococcus faecalis (GC 4553) (Enterococcus sp.; strain GC 4553): 8 µg/mL (≈ 5.48 µM)
MIC Enterococcus faecalis (GC 4554) (Enterococcus sp.; strain GC 4554): 32 µg/mL (≈ 21.9 µM)
MIC Enterococcus faecium (GC 4556) (Enterococcus sp.; strain GC 4556): 16 µg/mL (≈ 11 µM)
MIC Enterococcus faecium (GC 4557) (Enterococcus sp.; strain GC 4557): 4 µg/mL (≈ 2.74 µM)
MIC Enterococcus avium (GC 4558) (Enterococcus sp.; strain GC 4558): 8 µg/mL (≈ 5.48 µM)
MIC Enterococcus faecalis (GC 6189) (Enterococcus sp.; strain GC 6189): 16 µg/mL (≈ 11 µM)
MIC Enterococcus faecalis (GC 2242) (Enterococcus sp.; inoculum 5×10^5 CFU/mL, strain GC 2242): 16 µg/mL (≈ 11 µM)
MIC Enterococcus faecalis (GC 2691) (Enterococcus sp.; inoculum 5×10^5 CFU/mL, strain GC 2691): 32 µg/mL (≈ 21.9 µM)
MIC Enterococcus faecalis (GC 3059) (Enterococcus sp.; inoculum 5×10^5 CFU/mL, strain GC 3059): 32 µg/mL (≈ 21.9 µM)
MIC Escherichia coli (ATCC 25922) (Escherichia coli): 128 µg/mL (≈ 87.7 µM)
MIC Escherichia coli (GC 4559) (Escherichia coli): 64 µg/mL (≈ 43.8 µM)
MIC Escherichia coli (GC 4560) (Escherichia coli): 4 µg/mL (≈ 2.74 µM)
SMILES: CC(c1ccccc1)C1NC(=O)CNC(=O)C(CO)NC(=O)C(CC2CNC(=N)N2C2OC(CO)C(O)C(O)C2O)NC(=O)C(CC2CNC(=N)N2)NC(=O)C(Cc2ccc(OC3OC(CO)C(OC4OC(COCc5ccc(OCc6ccccc6)cc5)C(O)C(O)C4O)C(O)C3O)cc2)NC1=O (stereo not shown) [Example 246]
MIC Staphylococcus haemolyticus (GC 4546) (Staphylococcus sp.): 4 µg/mL (≈ 2.74 µM)
MIC Staphylococcus haemolyticus (GC 4546) (Staphylococcus sp.; strain GC 4546): 4 µg/mL (≈ 2.74 µM)
